Test results as given in patent publication US6740642B2, “Macrolides with antibacterial activity” (BAsilea Parmaceutica AG, priority 2000, dated 2004).
In brackets after ≈: the same amount, converted by molar mass.

How the values were obtained:
Assay in all cases: MIC, standard microdilution
St. pneumoniae 12288 = format: cell-based, Streptococcus pneumoniae; settings: for MIC: Streptococcus pneumoniae, read-out: minimum inhibitory concentration (MIC)
From the text: (§1) The antibacterial activities of the compounds have been determined by standard microdilution technique (National Committee for Clinical Laboratory Standards. 1997. Methods for dilution antimicrobial susceptibility tests for bacteria that grow aerobically, 4th edition. Approved standard M7-A4. National Committee for Clinical Laboratory Standards, Wayne, Pa.).

St. pneumoniae 1/1 = format: cell-based, Streptococcus pneumoniae; settings: for MIC: Streptococcus pneumoniae, read-out: minimum inhibitory concentration (MIC)
From the text: as §1

St. pneumoniae SL199T = format: cell-based, Streptococcus pneumoniae; settings: for MIC: Streptococcus pneumoniae, read-out: minimum inhibitory concentration (MIC)
From the text: as §1

St. pneumoniae 1/4 = format: cell-based, Streptococcus pneumoniae; settings: for MIC: Streptococcus pneumoniae, read-out: minimum inhibitory concentration (MIC)
From the text: as §1

[1] = system: P. aeruginosa ATCC27853 (+Ery. 32 μg/ml); format: cell-based
From the text: as §1

E. coli ATCC25922 = format: cell-based; settings: for MIC: Escherichia coli, read-out: minimum inhibitory concentration (MIC)
From the text: as §1

S. aureus 745 = format: cell-based, Staphylococcus aureus; settings: for MIC: Staphylococcus aureus, read-out: minimum inhibitory concentration (MIC)
From the text: as §1

S. aureus 1086 = format: cell-based, Staphylococcus aureus; settings: for MIC: Staphylococcus aureus, read-out: minimum inhibitory concentration (MIC)
From the text: as §1

S. aureus ATCC29213 = format: cell-based, Staphylococcus aureus; settings: for MIC: Staphylococcus aureus, read-out: minimum inhibitory concentration (MIC)
From the text: as §1

Compound | MIC (St. pneumoniae 12288) [µg/mL] | MIC (St. pneumoniae 1/1) [µg/mL] | MIC (St. pneumoniae SL199T) [µg/mL] | MIC (St. pneumoniae 1/4) [µg/mL] | minimum inhibitory concentration (MIC) [1] [µg/mL] | MIC (E. coli ATCC25922) [µg/mL] | MIC (S. aureus 745) [µg/mL] | MIC (S. aureus 1086) [µg/mL] | MIC (S. aureus ATCC29213) [µg/mL] | minimum inhibitory concentration (MIC) (St. pneumoniae 12288) [µg/mL] | minimum inhibitory concentration (MIC) (St. pneumoniae 1/1) | minimum inhibitory concentration (MIC) (St. pneumoniae SL199T) [µg/mL] | minimum inhibitory concentration (MIC) (St. pneumoniae 1/4) [µg/mL] | minimum inhibitory concentration (MIC) (E. coli ATCC25922) [µg/mL] | minimum inhibitory concentration (MIC) (S. aureus 745) [µg/mL] | minimum inhibitory concentration (MIC) (S. aureus 1086) [µg/mL] | minimum inhibitory concentration (MIC) (S. aureus ATCC29213) [µg/mL]
CC[C@H]1OC(=O)[C@H](C)C(=O)[C@H](C)[C@@H](O[C@@H]2O[C@H](C)C[C@H](N(C)C)[C@H]2O)[C@](C)(OC)C[C@@H](C)C(=O)[C@H](C)[C@H]2[C@H](SCCc3ccccn3)C(=O)O[C@@]21C [Compound I-13, (3S,3aR,4R,6R,8R,9R,10R,12R,15R,15aS)-15-Ethyloctahydro-8-methoxy-4,6,8,10,12,15a-hexamethyl-3-[[2-(2-pyridinyl)ethyl]thio]-9-[[3,4,6-trideoxy-3-(dimethylamino)-β-D-xylo-hexopyranosyl]oxy]-2H-furo[2,3-c]oxacyclotetradecin-2,5,11,13(3H,6H,12H)-tetrone] | 8 (≈ 10.7 µM) | ≤ 0.5 | 2 (≈ 2.67 µM) | 1 (≈ 1.34 µM) | >16 | 16 (≈ 21.4 µM) | > 16 | ≤ 0.25 | ≤ 0.25 | – | – | – | – | – | – | – | –
CC[C@H]1OC(=O)[C@H](C)C(=O)[C@H](C)[C@@H](O[C@@H]2O[C@H](C)C[C@H](N(C)C)[C@H]2O)[C@](C)(OC)C[C@@H](C)C(=O)[C@H](C)[C@H]2[C@H](SCCOc3ccccc3)C(=O)O[C@@]21C [Compound I-11, (3S,3aR,4R,6R,8R,9R,10R,12R,15R,15aS)-15-Ethyloctahydro-8-methoxy-4,6,8,10,12,15a-hexamethyl-3-[[2-phenoxyethyl]thio]-9-[[3,4,6-trideoxy-3-(dimethylamino)-β-D-xylo-hexopyranosyl]oxy]-2H-furo[2,3-c]oxacyclotetradecin-2,5,11,13(3H,6H,12H)-tetrone] | 8 (≈ 10.5 µM) | ≤ 0.5 | 4 (≈ 5.24 µM) | 4 (≈ 5.24 µM) | >16 | > 16 | > 16 | ≤ 0.25 | ≤ 0.25 | – | – | – | – | – | – | – | –
CC[C@H]1OC(=O)[C@H](C)C(=O)[C@H](C)[C@@H](O[C@@H]2O[C@H](C)C[C@H](N(C)C)[C@H]2O)[C@](C)(OC)C[C@@H](C)C(=O)[C@H](C)[C@H]2[C@H](Sc3ccccc3)C(=O)O[C@@]21C [Compound I-3, (3S,3aR,4R,6R,8R,9R,10R,12R,15R,15aS)-15-Ethyloctahydro-8-methoxy-4,6,8,10,12,15a-hexamethyl-3-[phenylthio]-9-[[3,4,6-trideoxy-3-(dimethylamino)-β-D-xylo-hexopyranosyl]oxy]-2H-furo[2,3-c]oxacyclotetradecin-2,5,11,13(3H,6H,12H)-tetrone] | 16 (≈ 22.2 µM) | ≤ 0.5 | 16 (≈ 22.2 µM) | 2 (≈ 2.78 µM) | >16 | > 16 | > 16 | 0.5 (≈ 0.695 µM) | 0.5 (≈ 0.695 µM) | – | – | – | – | – | – | – | –
CC[C@H]1OC(=O)[C@H](C)C(=O)[C@H](C)[C@@H](O[C@@H]2O[C@H](C)C[C@H](N(C)C)[C@H]2O)[C@](C)(OC)C[C@@H](C)C(=O)[C@H](C)[C@H]2[C@H](Sc3ccc(OC)c(OC)c3)C(=O)O[C@@]21C [Compound I-12] | – | – | – | – | >16 | – | – | – | – | 16 (≈ 20.5 µM) | <=0.5 μg/ml | 8 (≈ 10.3 µM) | 1 (≈ 1.28 µM) | >16 | >16 | 0.5 (≈ 0.641 µM) | 0.5 (≈ 0.641 µM)
CC[C@H]1OC(=O)[C@H](C)C(=O)[C@H](C)[C@@H](O[C@@H]2O[C@H](C)C[C@H](N(C)C)[C@H]2O)[C@](C)(OC)C[C@@H](C)C(=O)[C@H](C)[C@H]2[C@H](SCc3ccccc3)C(=O)O[C@@]21C [Compound I-4, (3S,3aR,4R,6R,8R,9R,10R,12R,15R,15aS)-15-Ethyloctahydro-8-methoxy-4,6,8,10,12,15a-hexamethyl-3-[(phenylmethyl)thio]-9-[[3,4,6-trideoxy-3-(dimethylamino)-β-D-xylo-hexopyranosyl]oxy]-2H-furo[2,3-c]oxacyclotetradecin-2,5,11,13(3H,6H,12H)-tetrone] | 16 (≈ 21.8 µM) | ≤ 0.5 | 16 (≈ 21.8 µM) | 8 (≈ 10.9 µM) | >16 | > 16 | > 16 | 1 (≈ 1.36 µM) | 1 (≈ 1.36 µM) | – | – | – | – | – | – | – | –
CC[C@H]1OC(=O)[C@H](C)C(=O)[C@H](C)[C@@H](O[C@@H]2O[C@H](C)C[C@H](N(C)C)[C@H]2O)[C@](C)(OC)C[C@@H](C)C(=O)[C@H](C)[C@H]2[C@H](SC)C(=O)O[C@@]21C [Compound I-5, (3S,3aR,4R,6R,8R,9R,10R,12R,15R,15aS)-15-Ethyloctahydro-8-methoxy-4,6,8,10,12,15a-hexamethyl-3-[methylthio]-9-[[3,4,6-trideoxy-3-(dimethylamino)-β-D-xylo-hexopyranosyl]oxy]-2H-furo[2,3-c]oxacydotetradecin-2,5,11,13(3H,6H,12H)-tetrone] | – | – | – | – | >16 | – | – | – | – | >32 | <=0.5 μg/ml | 16 (≈ 24.3 µM) | 32 (≈ 48.6 µM) | >16 | >16 | 0.5 (≈ 0.76 µM) | 0.5 (≈ 0.76 µM)

Further lines, results first:

MIC (St. pneumoniae 12288) [µg/mL] | MIC (St. pneumoniae 1/1) [µg/mL] | MIC (St. pneumoniae SL199T) [µg/mL] | MIC (St. pneumoniae 1/4) [µg/mL] | minimum inhibitory concentration (MIC) [1] [µg/mL] | MIC (E. coli ATCC25922) [µg/mL] | MIC (S. aureus 745) [µg/mL] | MIC (S. aureus 1086) [µg/mL] | MIC (S. aureus ATCC29213) [µg/mL] | minimum inhibitory concentration (MIC) (St. pneumoniae 12288) [µg/mL] | minimum inhibitory concentration (MIC) (St. pneumoniae 1/1) | minimum inhibitory concentration (MIC) (St. pneumoniae SL199T) [µg/mL] | minimum inhibitory concentration (MIC) (St. pneumoniae 1/4) [µg/mL] | minimum inhibitory concentration (MIC) (E. coli ATCC25922) [µg/mL] | minimum inhibitory concentration (MIC) (S. aureus 745) [µg/mL] | minimum inhibitory concentration (MIC) (S. aureus 1086) [µg/mL] | minimum inhibitory concentration (MIC) (S. aureus ATCC29213) [µg/mL] | Compound
> 16 | ≤ 0.12 | > 16 | 16 (≈ 26.2 µM) | >16 | > 16 | > 16 | 0.5 (≈ 0.817 µM) | 0.5 (≈ 0.817 µM) | – | – | – | – | – | – | – | – | CC[C@H]1OC(=O)[C@H](C)C(=O)[C@H](C)[C@@H](O[C@@H]2O[C@H](C)C[C@H](N(C)C)[C@H]2O)[C@](C)(OC)C[C@@H](C)C(=O)[C@H](C)[C@H]2CC(=O)O[C@@]21C [Compound I-25, (3aR,4R,6R,8R,9R,10R,12R,15R,15aS)-15-Ethyloctahydro-8-methoxy-4,6,8,10,12,15a-hexamethyl-9-[[3,4,6-trideoxy-3-(dimethylamino)-β-D-xylo-hexopyranosyl]oxy]-2H-furo[2,3-c]oxacyclotetradecin-2,5,11,13 (3H,6H,12H)-tetrone]
– | ≤ 0.12 | 1 (≈ 1.23 µM) | ≤ 0.12 | >16 | > 16 | > 16 | ≤ 0.12 | ≤ 0.12 | – | – | – | – | – | – | – | – | CC[C@H]1OC(=O)[C@H](C)C(=O)[C@H](C)[C@@H](O[C@@H]2O[C@H](C)C[C@H](N(C)C)[C@H]2O)[C@](C)(OC)C[C@@H](C)C(=O)[C@H](C)[C@H]2[C@H](SCCn3cnc(-c4cccnc4)n3)C(=O)O[C@@]21C [Compound I-17, (3S,3aR,4R,6R,8R,9R,10R,12R,15R,15aS)-15-Ethyloctahydro-8-methoxy-4,6,8,10,12,15a-hexamethyl-3-[[2-[3-(3-pyridinyl)-1H-1,2,4-triazol-1-yl]ethyl]thio]-9-[[3,4,6-trideoxy-3-(dimethylamino)-β-D-xylo-hexopyranosyl]oxy]-2H-furo[2,3-c]oxacyclotetradecin-2,5,11,13(3H,6H,12H)-tetrone]
> 16 | ≤ 0.12 | 8 (≈ 10.8 µM) | > 16 | >16 | > 16 | > 16 | 0.25 (≈ 0.338 µM) | 0.25 (≈ 0.338 µM) | – | – | – | – | – | – | – | – | CC[C@H]1OC(=O)[C@H](C)C(=O)[C@H](C)[C@@H](O[C@@H]2O[C@H](C)C[C@H](N(C)C)[C@H]2O)[C@](C)(OC)C[C@@H](C)C(=O)[C@H](C)[C@H]2[C@H](SCCn3cncn3)C(=O)O[C@@]21C [Compound I-21, (3S,3aR,4R,6R,8R,9R,10R,12R,15R,15aS)-15-Ethyloctahydro-8-methoxy-4,6,8,10,12,15a-hexamethyl-3-[[2-[1H-1,2,4-triazol-1-yl]ethyl]thio]-9-[[3,4,6-trideoxy-3-(dimethylamino)-β-D-xylo-hexopyranosyl]oxy]-2H-furo[2,3-c]oxacyclotetradecin-2,5,11,13(3H,6H,12H)-tetrone]
4 (≈ 4.91 µM) | ≤ 0.12 | 1 (≈ 1.23 µM) | ≤ 0.12 | >16 | > 16 | > 16 | ≤ 0.12 | ≤ 0.12 | – | – | – | – | – | – | – | – | CC[C@H]1OC(=O)[C@H](C)C(=O)[C@H](C)[C@@H](O[C@@H]2O[C@H](C)C[C@H](N(C)C)[C@H]2O)[C@](C)(OC)C[C@@H](C)C(=O)[C@H](C)[C@H]2[C@H](SCCn3ccc(-c4ccncc4)n3)C(=O)O[C@@]21C [Compound I-19, (3S,3aR,4R,6R,8R,9R,10R,12R,15R,15aS)-15-Ethyloctahydro-8-methoxy-4,6,8,10,12,15a-hexamethyl-3-[[2-[3-(4-pyridinyl)-1H-pyrazol-1-yl]ethyl]thio]-9-[[3,4,6-trideoxy-3-(dimethylamino)-β-D-xylo-hexopyranosyl]oxy]-2H-furo[2,3-c]oxacyclotetradecin-2,5,11,13(3H,6H,12H)-tetrone]
– | – | – | – | >16 | – | – | – | – | >16 | <=0.12 μg/ml | 8 (≈ 10.8 µM) | 1 (≈ 1.36 µM) | >16 | >16 | 0.25 (≈ 0.339 µM) | 0.25 (≈ 0.339 µM) | CC[C@H]1OC(=O)[C@H](C)C(=O)[C@H](C)[C@@H](O[C@@H]2O[C@H](C)C[C@H](N(C)C)[C@H]2O)[C@](C)(OC)C[C@@H](C)C(=O)[C@H](C)[C@H]2[C@H](SCCn3ccnc3)C(=O)O[C@@]21C [Compound I-22]
